According to patent US11020462B2, “Methods for treatment of diseases” (SERPIN PHARMA, LLC, priority 2015, dated 2021):
“And” between values parts separate entries of the source, which are not always exact repeats. Identical values can stand only once. “Also recorded” adds a separate entry of the source. Like-named read-outs stand apart in the source and are kept apart here.

Tests used:
healthy mouse = assay: cardiac contractility in the healthy mouse (echocardiography, isoproterenol challenge); type: in vivo; conditions: FIG. 7
Experimental: To test the effect of SP163M on heart contractility the following study was conducted. […] SP34 is a peptide with a scrambled sequence of SP16 and is used as a control peptide.
Ten-weeks-old ICR mice were treated with SP163M (100 μg/mouse i.p.), the control peptide SP34 (100 μg/mouse) or the vehicle solution. Echocardiography was used to assess left ventricular (LV) fractional shortening at baseline and after 180 minutes.
Cardiac contractility reserve was tested with isoproterenol challenge (10 ng/kg i.p.), measuring the increase in LV fractional shortening within 5′ of treatment. Each group included at least 6 mice.

hERG = target: T1, hERG (Homo sapiens, UniProt Q12809); assay: cell-based; type: cell-based
T1 construct: Apredica, Boston, Mass; (contract laboratory that ran the study)

111 human receptors = assay: human receptor panning, GenSEP Explorer panel of 111 in vitro assay targets; conditions: 111 targets
Excerpt: In addition, we also performed a profile using human receptor panning. The GenSEP Explorer panel contains 111 in vitro assay targets carefully selected to assess drug/chemical biological activities. Assay categories include GPCRs, Voltage-Gated Ion Channels, Ligand-Gated Ion Channels, Neurotransmitter transporters, Nuclear Receptors and Steroids as well as a diverse set of biochemical targets including phosphodiesterases, kinases and other relevant enzymes.

[1] = SP16 pharmacokinetic profile after intravenous injection (LC/MS/MS of plasma); type: in vivo, rats
Experimental: The following table provides the results from an assay for SP16's pharmacokinetic profile. In performing the assay, three normal rats were injected intravenously with 5 mg/kg SP16 and the plasma concentration of SP16 established at 8 time points following the injection. […] The assay was executed by Apredica, Boston, Mass.

recombinant LRP1 protein = target: T2, recombinant LRP1 protein (Homo sapiens, UniProt Q07954); assay: in vitro binding of biotin-peptide to recombinant LRP1 (streptavidin bead pull-down, western blot)
T2 construct: purchased R&D Systems, Minneapolis, Minn
Experimental: An in vitro assay was performed to examine SP163M binding to LRP1. To perform the assay, recombinant LRP1 protein (1 μg/ml) (R&D Systems, Minneapolis, Minn.) was incubated on ice in the presence of biotin-SP163M (1-5 μg/ml) at 4° C. for 1 hour. This mixture was then incubated with 1 mg/ml M280 Streptavidin Dynabeads (Invitrogen, Carlsbad, Calif.) for 1.5 hours at 4° C. Dynabeads were washed in PBS+0.1% Tween20 and boiled in SDS loading buffer for 5 minutes. The supernatants were separated on NuPAGE 4-12% Bis-Tris gels (Invitrogen) and transferred to nitrocellulose membranes. The membranes were probed with anti-LRP1 (LRP-1 Cluster II Affinity Purified Polyclonal Ab, R&D, Minneapolis, Minn.) and incubated overnight at 4° C. The membranes were then washed 3 times with TBS-T and incubated with secondary HRP-coupled anti-goat diluted 1:10,000 in 5% milk TBS-T. The western blots were visualized by chemiluminescence using SuperSignal West Femto Maximum Sensitivity Substrate kit (ThermoScientific) and a Bio Rad Molecular Imager ChemiDoc XRS system (Bio-Rad, Hercules, Calif.).

LRP1 = target: T3, LRP1 (Mus musculus, UniProt Q91ZX7); assay: experimental AMI in mice pretreated with LRP1 blocking antibody; type: in vivo; conditions: LRP1 antibody clone 5A6 3 mg/kg 16 hours before surgery; SP163M 100 μg or AAT 60 mg/kg i.p. after reperfusion, FIG. 14
T3 construct: from tissue; host or cells: living CD1 mice (heart, in vivo)
Experimental: To examine the whether LRP1 mediates the cardioprotective effect of SP163M, groups of mice were treated with an LRP1 blocking antibody prior to experimental AMI. The resulting infarct size and LV systolic function were measured
Adult out-bred male CD1 mice (10 weeks of age) supplied by Harlan Sprague Dawley (Indianapolis, Ind.) were used in this study. A single operator (S.T.) skilled in coronary artery surgical ligation in mice performed all surgeries. Experimental AMI was induced by transient coronary artery ligation of the left anterior descending coronary artery for 30 minutes to induce ischemia of the anterior wall and the apex (visible as pallor) followed by reperfusion, and leading to an infarct involving approximately 15% of the left ventricle. […]
Infarct size (reported in FIG. 14A) was measured as previously described. […] The infarcted tissue (appearing white) and the viable tissue (bright red) were measured by computer morphometry using Image Pro Plus 6.0 software (Media Cybernetics, Silver Spring, Md.). […]
LV systolic function (reported in FIG. 14B) was determined as well. […] We measured the left ventricular (LV) end-diastolic and end-systolic areas at B-Mode and the LV end-diastolic diameter (LVEDD), LV end-systolic diameters (LVESD) at M-Mode. LV fractional shortening (FS) and LV ejection fraction (EF) were calculated. […]

[2] = test system: inflammatory reaction that occurs after AMI; conditions: pilot clinical study; cited from earlier work
[3] = test system: experimental acute myocardial infarction (AMI) in the mouse; conditions: AAT at onset of ischemia or at time of reperfusion, cited from earlier work
TNF-alpha = assay: LPS challenged mouse model of sepsis, TNF-alpha levels; type: in vivo
Excerpt: Specifically, in these particular fragments, the three most N-terminal and the two most C-terminal amino acids appear to play a role in the anti-inflammatory properties of the peptides as replacement of them appeared to reduce the capacity of the peptides to reduce TNF-alpha levels in a LPS challenged mouse model of sepsis (see, e.g., PCT/US13/20498; which is incorporated by reference herein in its entirety). Accordingly, in some aspects of all embodiments of the invention the peptides are selected from SP40, SP43, SP46, and SP49 the peptide sequences of which are set forth in Table B.
Table C below presents additional exemplary peptides that were used to reduce TNF-alpha levels in mice subjected to an LPS challenge. Also the peptides with capacity to reduce TNF-alpha levels as described in PCT/US13/20498; which is incorporated by reference herein in its entirety, are contemplated for the compositions, pharmaceutical compositions and methods of use and treatment of inflammatory conditions in the present invention.

[4] = rat, in vivo, SP16, IV (5 mg/kg), normal rats

T1 sequence (Q12809 whole entry): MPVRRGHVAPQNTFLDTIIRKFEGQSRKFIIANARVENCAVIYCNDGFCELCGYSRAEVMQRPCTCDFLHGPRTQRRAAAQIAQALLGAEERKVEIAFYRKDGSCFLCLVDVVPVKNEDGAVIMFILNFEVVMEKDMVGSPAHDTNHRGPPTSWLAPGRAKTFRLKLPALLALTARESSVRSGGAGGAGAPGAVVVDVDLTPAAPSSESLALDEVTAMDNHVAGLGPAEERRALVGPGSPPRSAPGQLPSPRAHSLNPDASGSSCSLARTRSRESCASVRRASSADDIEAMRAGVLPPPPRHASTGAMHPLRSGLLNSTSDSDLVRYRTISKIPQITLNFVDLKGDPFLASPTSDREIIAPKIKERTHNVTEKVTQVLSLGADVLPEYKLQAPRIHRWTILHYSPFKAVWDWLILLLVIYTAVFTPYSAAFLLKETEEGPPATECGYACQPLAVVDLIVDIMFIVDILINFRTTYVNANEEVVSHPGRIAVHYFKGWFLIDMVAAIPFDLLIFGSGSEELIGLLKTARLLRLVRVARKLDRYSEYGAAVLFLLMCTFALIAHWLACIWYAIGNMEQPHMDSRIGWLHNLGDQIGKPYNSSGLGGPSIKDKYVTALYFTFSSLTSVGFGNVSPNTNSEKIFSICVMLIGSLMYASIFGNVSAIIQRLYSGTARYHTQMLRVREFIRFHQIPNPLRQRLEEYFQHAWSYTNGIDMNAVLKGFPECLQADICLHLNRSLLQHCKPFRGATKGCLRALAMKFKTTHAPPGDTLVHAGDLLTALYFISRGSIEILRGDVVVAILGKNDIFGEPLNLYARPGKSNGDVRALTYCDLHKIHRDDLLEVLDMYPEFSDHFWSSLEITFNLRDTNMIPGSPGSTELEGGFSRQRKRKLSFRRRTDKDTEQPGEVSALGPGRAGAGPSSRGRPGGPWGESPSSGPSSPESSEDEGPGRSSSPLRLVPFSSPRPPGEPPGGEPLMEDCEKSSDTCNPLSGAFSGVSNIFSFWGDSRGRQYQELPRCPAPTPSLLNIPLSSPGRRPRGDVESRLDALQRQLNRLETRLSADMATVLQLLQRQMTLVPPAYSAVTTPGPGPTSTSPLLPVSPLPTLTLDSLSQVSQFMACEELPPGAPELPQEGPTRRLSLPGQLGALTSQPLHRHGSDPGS
T2 sequence (Q07954 with tags, fused parts or gaps limits assumed, species assumed): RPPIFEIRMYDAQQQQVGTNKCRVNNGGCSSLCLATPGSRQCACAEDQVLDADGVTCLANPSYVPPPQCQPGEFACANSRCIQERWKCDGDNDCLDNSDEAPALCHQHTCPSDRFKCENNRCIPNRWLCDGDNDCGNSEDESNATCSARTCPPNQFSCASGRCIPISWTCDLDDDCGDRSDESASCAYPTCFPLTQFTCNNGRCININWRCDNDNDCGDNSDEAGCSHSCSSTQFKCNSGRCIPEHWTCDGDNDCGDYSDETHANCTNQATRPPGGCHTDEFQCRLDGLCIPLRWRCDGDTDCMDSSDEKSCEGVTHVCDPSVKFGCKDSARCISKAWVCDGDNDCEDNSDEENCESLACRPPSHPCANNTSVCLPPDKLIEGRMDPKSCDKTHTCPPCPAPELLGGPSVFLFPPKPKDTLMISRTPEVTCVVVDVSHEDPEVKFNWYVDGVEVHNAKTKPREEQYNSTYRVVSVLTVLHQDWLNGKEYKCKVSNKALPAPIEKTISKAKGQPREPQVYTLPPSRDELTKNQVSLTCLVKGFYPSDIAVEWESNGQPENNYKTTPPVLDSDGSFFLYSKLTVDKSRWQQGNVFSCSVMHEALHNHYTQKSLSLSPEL

CC[C@H](C)[C@H](NC(=O)[C@H](CCSC)NC(=O)[C@H](CC(C)C)NC(=O)[C@H](Cc1ccccc1)NC(=O)[C@@H](NC(=O)[C@H](Cc1ccccc1)NC(=O)[C@@H]1CCCN1C(=O)[C@H](CCCCN)NC(=O)[C@H](CC(N)=O)NC(=O)[C@H](Cc1ccccc1)NC(=O)[C@H](CCCCN)NC(=O)[C@@H](N)C(C)C)C(C)C)C(=O)N[C@@H](CCC(=O)O)C(=O)N[C@@H](CCC(N)=O)C(=O)N[C@@H](CC(N)=O)C(=O)N[C@H](C(=O)N[C@@H](CCCCN)C(=O)O)[C@@H](C)O [SP16]
heart contractility (healthy mouse): does not affect heart contractility
IC50 (hERG): > 25 µM
comment: concentration-dependent inhibition of hERG observed or not (hERG; 0.008-25 μM): No concentration-dependent
activity at 0.008 µM (hERG; hERG, 0.008 μM): 89%
activity at 0.04 µM (hERG; hERG, 0.04 μM): 95%
activity at 0.2 µM (hERG; hERG, 0.2 μM): 95%
activity at 1 µM (hERG; hERG, 1 μM): 78%
activity at 5 µM (hERG; hERG, 5 μM): 88%
activity at 25 µM (hERG; hERG, 25 μM): 89%
inhibition of hERG (in words) (hERG; up to 25 μM): does not impact hERG activity; also recorded: does not inhibit hERG
effect on the human receptor panel (in words) (111 human receptors): not able to identify any hits; also recorded: no effect on 111 human receptors
Last Time point ([1]; SP16, IV (5 mg/kg), normal rats): 8.0
Cmax ([1]; rat, in vivo, iv, 5 mg/kg intravenously, three normal rats): 2500 ng/mL
half-life ([1]; rat, in vivo, iv, 5 mg/kg intravenously, three normal rats, read-out: T1/2 (half-life) (converted)): 1.9 h
C0 [1, 4]: 2500 ng/mL
MRT inf [1, 4]: 1.1 h
AUC ([1]; rat, in vivo, SP16, IV (5 mg/kg), normal rats, read-out: AUC to Last): 900 ng·h/mL
clearance ([1]; rat, in vivo, SP16, IV (5 mg/kg), normal rats, read-out: Total CL (converted)): 2.33 mL/min and 9.7 mL/min/kg
Vd ([1]; rat, in vivo, SP16, IV (5 mg/kg), normal rats, read-out: Vss): 0.149 L
Vd ([1]; rat, plasma, SP16, IV (5 mg/kg), normal rats, read-out: V): 0.374 L

A A A N K P F V F L M I E Q N T K (AAANKPFVFLMIEQNTK; listed as Homo sapiens) [SP37]
binding to LRP1 (statement without method) (recombinant LRP1 protein): bind LRP1

AAT: plasma derived alpha-1 antitrypsin (AAT) (Aralast N P, Baxter); circulating serum protein, parent of SP16
protective effects (infarct size, LV systolic function) after LRP1 blocking antibody (LRP1): eliminates the cardioprotective effects; also recorded: eliminated the protective effects
safety and efficacy in blocking the inflammatory reaction after AMI [2]: preliminary safety and efficacy
infarct size ([3]; vs albumin, FIG. 3): significantly smaller infarct size; also recorded: reduces infarct size
cardiac healing and remodeling [3]: more favorable cardiac healing and remodeling

V K F A A A F V F L M I E Q N T K (VKFAAAFVFLMIEQNTK; listed as Homo sapiens) [SP40]
binding to LRP1 (statement without method) (recombinant LRP1 protein): bind LRP1
anti-inflammatory effect (TNF-alpha): particularly good anti-inflammatory effect

V K F N K P A A A L M I E Q N T K (VKFNKPAAALMIEQNTK; listed as Homo sapiens) [SP43]
anti-inflammatory effect (TNF-alpha): particularly good anti-inflammatory effect

V K F N K P F V F A A A E Q N T K (VKFNKPFVFAAAEQNTK; listed as Homo sapiens) [SP46]
anti-inflammatory effect (TNF-alpha): particularly good anti-inflammatory effect

V K F N K P F V F L M I A A A T K (VKFNKPFVFLMIAAATK; listed as Homo sapiens) [SP49]
anti-inflammatory effect (TNF-alpha): particularly good anti-inflammatory effect

V K F N K P F V F L M I E Q A A A (VKFNKPFVFLMIEQAAA; listed as Homo sapiens) [SP51]
binding to LRP1 (statement without method) (recombinant LRP1 protein): bind LRP1
